Reference: patent publication EP2768830B1, “APOPTOSIS-INDUCING AGENTS FOR THE TREATMENT OF CANCER AND IMMUNE AND AUTOIMMUNE DISEASES” (AbbVie Inc., priority 2011, dated 2013)
Read-outs that look alike come from different tables or passages of the source.

Columns and labels:
GST-Bcl-xL = GST-Bcl-xL (Homo sapiens, UniProt Q07817); conditions: read-out: TR-FRET binding Bcl-xL Ki
[1] = tested on: mouse FL5.12 cells transfected with Bcl-XL; assay: FL5.12 cellular assay (cell viability, CellTiter-Glo); assay type: cell-based; conditions: FL5.12 cells transfected with Bcl-XL, IL-3-depleted, 3% FBS assay media, 24 hours, CellTiter-Glo, read-out: FL5.12 Bcl-xL, - IL3, EC 50;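 note: each EC50 determination derived from duplicate measurements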

GST-Bcl-xL, sequence (Q07817 whole entry): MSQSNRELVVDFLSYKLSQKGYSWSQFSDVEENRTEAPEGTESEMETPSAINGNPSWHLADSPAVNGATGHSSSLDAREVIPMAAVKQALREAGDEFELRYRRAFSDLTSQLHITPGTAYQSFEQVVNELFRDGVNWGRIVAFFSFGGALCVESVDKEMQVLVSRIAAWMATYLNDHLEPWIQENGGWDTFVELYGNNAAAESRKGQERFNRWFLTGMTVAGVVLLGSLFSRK

Row | SMILES | Ki (GST-Bcl-xL) [nM] | EC50 ([1]; Mus musculus) [nM] | EC50 [1] [nM]
1 | Cc1cc(Oc2ccccc2)ccc1-c1ccc(N2CCc3cccc(C(=O)Nc4nc5ccccc5s4)c3C2)nc1C(=O)O [Example 111, 6-[8-(1,3-benzothiazol-2-ylcarbamoyl)-3,4-dihydroisoquinolin-2(1H)-yl]-3-(2-methyl-4-phenoxyphenyl)pyridine-2-carboxylic acid] | 21 | > 1000 | –
2 | Cc1c(OCC2CCCCC2)cccc1-c1ccc(N2CCc3cccc(C(=O)Nc4nc5ccccc5s4)c3C2)nc1C(=O)O [Example 112, 6-[8-(1,3-benzothiazol-2-ylcarbamoyl)-3,4-dihydroisoquinolin-2(1H)-yl]-3-[3-(cyclohexylmethoxy)-2-methylphenyl]pyridine-2-carboxylic acid] | 0.7 | 523 | –
3 | Cc1cc(OC2CCCCC2)ccc1-c1ccc(N2CCc3cccc(C(=O)Nc4nc5ccccc5s4)c3C2)nc1C(=O)O [Example 113, 6-[8-(1,3-benzothiazol-2-ylcarbamoyl)-3,4-dihydroisoquinolin-2(1H)-yl]-3-[4-(cyclohexyloxy)-2-methylphenyl]pyridine-2-carboxylic acid] | 19 | > 1000 | –
4 | Cc1c(OC2CCCCC2)cccc1-c1ccc(N2CCc3cccc(C(=O)Nc4nc5ccccc5s4)c3C2)nc1C(=O)O [Example 114, 6-[8-(1,3-benzothiazol-2-ylcarbamoyl)-3,4-dihydroisoquinolin-2(1H)-yl]-3-[3-(cyclohexyloxy)-2-methylphenyl]pyridine-2-carboxylic acid] | 0.2 | 220 | –
5 | Cc1cc(OCC2CCCCC2)ccc1-c1ccc(N2CCc3cccc(C(=O)Nc4nc5ccccc5s4)c3C2)nc1C(=O)O [Example 115, 6-[8-(1,3-benzothiazol-2-ylcarbamoyl)-3,4-dihydroisoquinolin-2(1H)-yl]-3-[4-(cyclohexylmethoxy)-2-methylphenyl]pyridine-2-carboxylic acid] | 5 | 916 | –
6 | N#Cc1c(OC2CCCCC2)cccc1-c1ccc(N2CCc3cccc(C(=O)Nc4nc5ccccc5s4)c3C2)nc1C(=O)O [Example 116, 6-[8-(1,3-benzothiazol-2-ylcarbamoyl)-3,4-dihydroisoquinolin-2(1H)-yl]-3-[2-cyano-3-(cyclohexyloxy)phenyl]pyridine-2-carboxylic acid] | < 0.1 | 667 | –
7 | O=C(Nc1nc2ccccc2s1)c1cccc2c1CN(c1ccc(-c3cccc(OC4CCCCC4)c3Cl)c(C(=O)O)n1)CC2 [Example 117, 6-[8-(1,3-benzothiazol-2-ylcarbamoyl)-3,4-dihydroisoquinolin-2(1H)-yl]-3-[2-chloro-3-(cyclohexyloxy)phenyl]pyridine-2-carboxylic acid] | < 0.1 | 131 | –
8 | Cc1c(NC2CCCCC2)cccc1-c1ccc(N2CCc3cccc(C(=O)Nc4nc5ccccc5s4)c3C2)nc1C(=O)O [Example 118, 6-[8-(1,3-benzothiazol-2-ylcarbamoyl)-3,4-dihydroisoquinolin-2(1H)-yl]-3-[3-(cyclohexylamino)-2-methylphenyl]pyridine-2-carboxylic acid] | 0.2 | 361 | –
9 | O=C(Nc1nc2ccccc2s1)c1cccc2c1CN(c1ccc(-c3cccc(OC4CCCCC4)c3F)c(C(=O)O)n1)CC2 [Example 119, 6-[8-(1,3-benzothiazol-2-ylcarbamoyl)-3,4-dihydroisoquinolin-2(1H)-yl]-3-[3-(cyclohexyloxy)-2-fluorophenyl]pyridine-2-carboxylic acid] | < 0.1 | – | 762
10 | O=C(Nc1nc2ccccc2s1)c1cccc2c1CN(c1ccc(-c3cccc(OC4CCCCC4)c3C(F)(F)F)c(C(=O)O)n1)CC2 [Example 120, 6-[8-(1,3-benzothiazol-2-ylcarbamoyl)-3,4-dihydroisoquinolin-2(1H)-yl]-3-[3-(cyclohexyloxy)-2-(trifluoromethyl)phenyl]pyridine-2-carboxylic acid] | 0.4 | 859 | –
11 | Cc1c(OC2CCCC(C)(C)C2)cccc1-c1ccc(N2CCc3cccc(C(=O)Nc4nc5ccccc5s4)c3C2)nc1C(=O)O (centres unmarked) [Example 121, 6-[8-(1,3-benzothiazol-2-ylcarbamoyl)-3,4-dihydroisoquinolin-2(1H)-yl]-3-{3-[(3,3-dimethylcyclohexyl)oxy]-2-methylphenyl}pyridine-2-carboxylic acid] | 0.1 | 82 | –
12 | O=C(Nc1nc2ccccc2s1)c1cccc2c1CN(c1ccc(-c3cn(Cc4ccccc4)nn3)c(C(=O)O)n1)CC2 [Example 122, 6-[8-(1,3-benzothiazol-2-ylcarbamoyl)-3,4-dihydroisoquinolin-2(1H)-yl]-3-(1-benzyl-1H-1,2,3-triazol-4-yl)pyridine-2-carboxylic acid] | 117 | > 1000 | –
13 | CCOC(=O)c1cc(-c2ccc(N3CCc4cccc(C(=O)Nc5nc6ccccc6s5)c4C3)nc2C(=O)O)c(C)n1Cc1ccccc1 [Example 123, 6-[8-(1,3-benzothiazol-2-ylcarbamoyl)-3,4-dihydroisoquinolin-2(1H)-yl]-3-[1-benzyl-5-(ethoxycarbonyl)-2-methyl-1H-pyrrol-3-yl]pyridine-2-carboxylic acid] | < 0.1 | 16 | –
14 | Cc1c(-c2ccc(N3CCc4cccc(C(=O)Nc5nc6ccccc6s5)c4C3)nc2C(=O)O)cc(C(=O)O)n1Cc1ccccc1 [Example 124, 6-[8-(1,3-benzothiazol-2-ylcarbamoyl)-3,4-dihydroisoquinolin-2(1H)-yl]-3-(1-benzyl-5-carboxy-2-methyl-1H-pyrrol-3-yl)pyridine-2-carboxylic acid] | < 0.1 | 57 | –
15 | Cc1ccc(S(=O)(=O)n2ccc(-c3ccc(N4CCc5cccc(C(=O)Nc6nc7ccccc7s6)c5C4)nc3C(=O)O)c2)cc1 [Example 126, 6-[8-(1,3-benzothiazol-2-ylcarbamoyl)-3,4-dihydroisoquinolin-2(1H)-yl]-3-{1-[(4-methylphenyl)sulfonyl]-1H-pyrrol-3-yl}pyridine-2-carboxylic acid] | 47 | > 1000 | –
16 | O=C(Nc1nc2ccccc2s1)c1cccc2c1CN(c1ccc(-c3ccn(C(=O)c4ccccc4)c3)c(C(=O)O)n1)CC2 [Example 127, 6-[8-(1,3-benzothiazol-2-ylcarbamoyl)-3,4-dihydroisoquinolin-2(1H)-yl]-3-(1-benzoyl-1H-pyrrol-3-yl)pyridine-2-carboxylic acid] | 2 | > 1000 | –
17 | O=C(Nc1nc2ccccc2s1)c1cccc2c1CN(c1ccc(-c3ccn(S(=O)(=O)c4ccccc4)c3)c(C(=O)O)n1)CC2 [Example 128, 6-[8-(1,3-benzothiazol-2-ylcarbamoyl)-3,4-dihydroisoquinolin-2(1H)-yl]-3-[1-(phenylsulfonyl)-1H-pyrrol-3-yl]pyridine-2-carboxylic acid] | 7 | > 1000 | –
18 | Cc1c(-c2ccc(N3CCc4cccc(C(=O)Nc5nc6ccccc6s5)c4C3)nc2C(=O)O)cc(C#N)n1Cc1ccccc1 [Example 129, 6-[8-(1,3-benzothiazol-2-ylcarbamoyl)-3,4-dihydroisoquinolin-2(1H)-yl]-3-(1-benzyl-5-cyano-2-methyl-1H-pyrrol-3-yl)pyridine-2-carboxylic acid] | < 0.1 | 18 | –
19 | Cc1c(-c2ccc(N3CCc4cccc(C(=O)Nc5nc6ccccc6s5)c4C3)nc2C(=O)O)cc(C#N)n1CC1CCCCC1 [Example 130, 6-[8-(1,3-benzothiazol-2-ylcarbamoyl)-3,4-dihydroisoquinolin-2(1H)-yl]-3-[5-cyano-1-(cyclohexylmethyl)-2-methyl-1H-pyrrol-3-yl]pyridine-2-carboxylic acid] | < 0.1 | 30 | –
20 | COCCC1(Cn2ncc(-c3ccc(N4CCc5cccc(C(=O)Nc6nc7ccccc7s6)c5C4)nc3C(=O)O)c2C)CCCCCC1 [Example 134, 6-[8-(1,3-benzothiazol-2-ylcarbamoyl)-3,4-dihydroisoquinolin-2(1H)-yl]-3-(1-{[1-(2-methoxyethyl)cycloheptyl]methyl}-5-methyl-1H-pyrazol-4-yl)pyridine-2-carboxylic acid] | < 0.1 | 0.9 | –
21 | O=C(Nc1nc2ccccc2s1)c1cccc2c1CN(c1ccc(-c3cnn(CC4CCNCC4)c3)c(C(=O)O)n1)CC2 [Example 135, 6-[8-(1,3-benzothiazol-2-ylcarbamoyl)-3,4-dihydroisoquinolin-2(1H)-yl]-3-[1-(piperidin-4-ylmethyl)-1H-pyrazol-4-yl]pyridine-2-carboxylic acid] | 78 | > 1000 | –
22 | O=C(Nc1nc2ccccc2s1)c1cccc2c1CN(c1ccc(-c3ccc4c(c3)CCN(Cc3ccccn3)C4)c(C(=O)O)n1)CC2 [Example 136, 6-[8-(1,3-benzothiazol-2-ylcarbamoyl)-3,4-dihydroisoquinolin-2(1H)-yl]-3-[2-(pyridin-2-ylmethyl)-1,2,3,4-tetrahydroisoquinolin-6-yl]pyridine-2-carboxylic acid] | 1.4 | > 1000 | –
23 | Cc1c(-c2ccc(N3CCc4cccc(C(=O)Nc5nc6ccccc6s5)c4C3)nc2C(=O)O)ccnc1OC1CCCCC1 [Example 138, 6-[8-(1,3-benzothiazol-2-ylcarbamoyl)-3,4-dihydroisoquinolin-2(1H)-yl]-2'-(cyclohexyloxy)-3'-methyl-3,4'-bipyridine-2-carboxylic acid] | < 0.1 | > 1000 | –
24 | O=C(Nc1nc2ccccc2s1)c1cccc2c1CN(c1ccc(-c3ccnc(OC4CCCCC4)c3)c(C(=O)O)n1)CC2 [Example 139, 6-[8-(1,3-benzothiazol-2-ylcarbamoyl)-3,4-dihydroisoquinolin-2(1H)-yl]-2'-(cyclohexyloxy)-3,4'-bipyridine-2-carboxylic acid] | 0.4 | > 1000 | –
25 | O=C(Nc1nc2ccccc2s1)c1cccc2c1CN(c1ccc(-c3ccnc(Oc4ccccc4)c3)c(C(=O)O)n1)CC2 [Example 140, 6-[8-(1,3-benzothiazol-2-ylcarbamoyl)-3,4-dihydroisoquinolin-2(1H)-yl]-2'-phenoxy-3,4'-bipyridine-2-carboxylic acid] | 2.3 | > 1000 | –
